Values after ≈ are worked out from the molar mass of the structure shown. Each block holds one compound with its values, some of them ahead of it.
Columns and labels:
[1] = Metabolic stability in rat liver microsome assessed as half life […]; type: ADME; conditions: liver microsomes
P-glycoprotein = experiment: Efflux ratio of apparent permeability across basal to apical membrane over apical to basal membrane in human Caco-2 cells in absence of P-glycoprotein; type: ADME, cell-based
[2] = Solubility of compound; type: physicochemical
[3] = Water solubility of compound; type: physicochemical
[4] = Stability of compound in PBS at pH 4.9 assessed as half life; type: physicochemical
[5] = Stability of compound in PBS at pH 5.5 assessed as half life; type: physicochemical
[6] = Stability of compound in PBS at pH 7.4 assessed as half life; type: physicochemical
[7] = Cmax in rat in presence of Ritonavir; type: ADME; conditions: in vivo, read-out: Cmax
[8] = AUC in rat in presence of Ritonavir; type: ADME; set-up: concentration or dose not given beside the values; conditions: in vivo, read-out: AUC
[9] = Stability of compound in PBS buffer at pH 7.3 assessed as half life; type: physicochemical

half-life [1]: 224 min | efflux ratio (P-glycoprotein): 1.2
Compound: CC(C)[C@H](NC(=O)[C@H](N)C(C)C)C(=O)O[C@H](CN1C[C@H]2CCCC[C@H]2C[C@H]1C(=O)NC(C)(C)C)[C@H](Cc1ccccc1)NC(=O)[C@H](CC(N)=O)NC(=O)c1ccc2ccccc2n1

solubility [3]: 0.123 mg/mL (≈ 0.246 mM)
Compound: CC(C)(C)NC(=O)[C@@H]1CSCN1C(=O)[C@@H](O)[C@H](Cc1ccccc1)NC(=O)COc1ccccc1

half-life [4]: 24.8 min | half-life [5]: 4.5 min | half-life [6]: < 1 min
Compound: Cc1cccc(C)c1OCC(=O)O[C@H](C(=O)N1CSC(C)(C)[C@H]1C(=O)NC(C)(C)C)[C@@H](N)Cc1ccccc1.Cl

half-life [4]: 24 min | half-life [5]: 3.2 min | solubility [3]: 21 mg/mL | half-life [6]: < 1 min
Compound: CC(C)(C)NC(=O)[C@H]1N(C(=O)[C@@H](OC(=O)COc2ccccc2)[C@@H](N)Cc2ccccc2)CSC1(C)C.Cl

Cmax [7]: 1280 ng/mL | AUC [8]: > 4000 ng·h/mL
Compound: Cc1nc(COc2ccc(C[C@H](NC(=O)O[C@H]3CO[C@H]4OCC[C@H]43)[C@@H](CN(CC(C)C)S(=O)(=O)c3ccc4c(c3)OCO4)OC(=O)COC(=O)CN3CCOCC3)cc2)cs1

half-life [9]: 50 h
Compound: CC(C)(C)NC(=O)[C@@H]1CN(Cc2cccnc2)CCN1C[C@@H](O)C[C@@H](Cc1ccccc1)C(=O)N[C@H]1c2ccccc2C[C@H]1OC(=O)CCCCO[C@H]1O[C@H](CO)[C@@H](O)[C@H](O)[C@@H]1O

solubility [2]: 31.9 mg/mL (≈ 42.8 mM)
Compound: Cc1cccc(C)c1OCC(=O)N[C@@H](Cc1ccccc1)[C@H](OC(=O)CCC(=O)NCc1ccccn1)C(=O)N1CSC(C)(C)[C@H]1C(=O)NC(C)(C)C

solubility [3]: 0.047 mg/mL (≈ 0.0891 mM)
Compound: CC(C)(C)NC(=O)[C@H]1N(C(=O)[C@@H](O)[C@H](Cc2ccccc2)NC(=O)COc2ccccc2)CSC1(C)C

Cmax [7]: 407 ng/mL | AUC [8]: 4710 ng·h/mL
Compound: COCCN(C)CC(=O)OCC(=O)O[C@H](CN(CC(C)C)S(=O)(=O)c1ccc2c(c1)OCO2)[C@H](Cc1ccc(OCc2csc(C)n2)cc1)NC(=O)O[C@H]1CO[C@H]2OCC[C@H]21

half-life [4]: 19.6 min | half-life [5]: 2.4 min | solubility [3]: 15 mg/mL | half-life [6]: < 1 min
Compound: Cc1ccccc1OCC(=O)O[C@H](C(=O)N1CSC[C@H]1C(=O)NC(C)(C)C)[C@@H](N)Cc1ccccc1.Cl

half-life [4]: 23.8 min | half-life [5]: 4.2 min | solubility [3]: 15 mg/mL | half-life [6]: < 1 min
Compound: Cc1cccc(C)c1OCC(=O)O[C@H](C(=O)N1CSC[C@H]1C(=O)NC(C)(C)C)[C@@H](N)Cc1ccccc1.Cl

Further lines, the compound ahead of its results:

Compound: Cc1cccc(C)c1OCC(=O)N[C@@H](Cc1ccccc1)[C@H](OC(=O)CCC(=O)NCc1cccnc1)C(=O)N1CSC(C)(C)[C@H]1C(=O)NC(C)(C)C
solubility [2]: 30.3 mg/mL (≈ 40.6 mM)

Compound: Cc1cccc(C)c1OCC(=O)N[C@@H](Cc1ccccc1)[C@H](OC(=O)CCC(=O)NCCCN1CCOCC1)C(=O)N1CSC(C)(C)[C@H]1C(=O)NC(C)(C)C
solubility [2]: 73.6 mg/mL (≈ 94.1 mM)

Compound: Cc1ccccc1OCC(=O)N[C@@H](Cc1ccccc1)[C@H](O)C(=O)N1CSC(C)(C)[C@H]1C(=O)NC(C)(C)C
solubility [3]: 0.018 mg/mL (≈ 0.0332 mM)

Compound: Cc1nc(COc2ccc(C[C@H](NC(=O)O[C@H]3CO[C@H]4OCC[C@H]43)[C@@H](CN(CC(C)C)S(=O)(=O)c3ccc4c(c3)OCO4)OC(=O)CO[n+]3ccccc3)cc2)cs1
Cmax [7]: 272 ng/mL | AUC [8]: > 7700 ng·h/mL

Compound: COCCN(CCOC)CC(=O)OCC(=O)O[C@H](CN(CC(C)C)S(=O)(=O)c1ccc2c(c1)OCO2)[C@H](Cc1ccc(OCc2csc(C)n2)cc1)NC(=O)O[C@H]1CO[C@H]2OCC[C@H]21
Cmax [7]: 1280 ng/mL | AUC [8]: > 4000 ng·h/mL

Compound: Cc1nc(COc2ccc(C[C@H](NC(=O)O[C@H]3CO[C@H]4OCC[C@H]43)[C@@H](CN(CC(C)C)S(=O)(=O)c3ccc4c(c3)OCO4)OC(=O)COC(=O)[C@@H](N)CC(C)C)cc2)cs1
Cmax [7]: 776 ng/mL | AUC [8]: 3960 ng·h/mL

Compound: Cc1nc(COc2ccc(C[C@H](NC(=O)O[C@H]3CO[C@H]4OCC[C@H]43)[C@@H](CN(CC(C)C)S(=O)(=O)c3ccc4c(c3)OCO4)OC(=O)COC(=O)CN(C)CCc3ccccn3)cc2)cs1
Cmax [7]: 791 ng/mL | AUC [8]: 5350 ng·h/mL

Compound: Cc1cccc(C)c1OCC(=O)N[C@@H](Cc1ccccc1)[C@H](OC(=O)CCC(=O)NCCN1CCCC1)C(=O)N1CSC(C)(C)[C@H]1C(=O)NC(C)(C)C
solubility [2]: 93.8 mg/mL (≈ 125 mM)

Compound: Cc1cccc(C)c1OCC(=O)N[C@@H](Cc1ccccc1)[C@H](OC(=O)CCCC(=O)NCCN1CCOCC1)C(=O)N1CSC(C)(C)[C@H]1C(=O)NC(C)(C)C
solubility [2]: 57.1 mg/mL (≈ 73 mM)

Compound: Cc1nc(COc2ccc(C[C@H](NC(=O)O[C@H]3CO[C@H]4OCC[C@H]43)[C@@H](CN(CC(C)C)S(=O)(=O)c3ccc4c(c3)OCO4)OC(=O)COCCOCC(=O)N(C)CCc3ccccn3)cc2)cs1
Cmax [7]: 513 ng/mL | AUC [8]: 4220 ng·h/mL

Compound: Cc1nc(COc2ccc(C[C@H](NC(=O)O[C@H]3CO[C@H]4OCC[C@H]43)[C@@H](CN(CC(C)C)S(=O)(=O)c3ccc4c(c3)OCO4)OC(=O)COCCn3ccnc3)cc2)cs1
Cmax [7]: 322 ng/mL | AUC [8]: > 5000 ng·h/mL

— ChEMBL document CHEMBL5260814, “Design strategies in the prodrugs of HIV-1 protease inhibitors to improve the pharmaceutical properties” (Eur J Med Chem, 2017)
